≈ marks a conversion by molar mass, not a printed value. Where no end group is shown, it is not given here.
Columns and labels:
[1] = tested on: Bacillus subtilis ATCC 6633; assay: microbe, parasite or virus in culture; type: cell-based; settings: Gram-positive, broth microdilution, Luria-Bertani broth, 1–64 μg/mL two-fold serial dilutions, lowest concentration that completely inhibited growth, triplicate
Method: (§1) The antimicrobial activity of each peptide was assessed against four strains, including two Gram-positive (Bacillus subtilis ATCC 6633 and Staphylococcus aureus ATCC 6538p) and two Gram-negative bacteria (Escherichia coli ATCC 25922 and Shigella dysentariae ATCC 9752) cultured in Luria-Bertani broth media. Antibacterial susceptibility was determined as the MIC value, which was measured using the standard broth microdilution method as described previously. […] Two conventional antibiotics, ampicillin and kanamycin, were used as controls to confirm antibiotic susceptibility. The tests were performed in triplicate, and the MIC values that were reproduced twice or thrice in the three independent measurements were employed to calculate the GM value.

[2] = tested on: Escherichia coli ATCC 25922; assay: microbe, parasite or virus in culture; type: cell-based; settings: Gram-negative, broth microdilution, Luria-Bertani broth, 1–64 μg/mL two-fold serial dilutions, triplicate
Method: as §1

[3] = tested on: Shigella dysentariae ATCC 9752; assay: microbe, parasite or virus in culture; type: cell-based; settings: Gram-negative, broth microdilution, Luria-Bertani broth, 1–64 μg/mL two-fold serial dilutions, triplicate
Method: as §1

[4] = tested on: Staphylococcus aureus ATCC 6538p; assay: microbe, parasite or virus in culture; type: cell-based; settings: Gram-positive, broth microdilution, Luria-Bertani broth, 1–64 μg/mL two-fold serial dilutions, triplicate
Method: as §1

[5] = tested on: two Gram-positive and two Gram-negative bacterial strains; assay: Antimicrobial assay, MICs over the four strains (geometric mean); type: cell-based, B. subtilis, S. aureus, E. coli, S. dysentariae; settings: geometric mean of the MICs against the four strains
Method: as §1

[6] = tested on: human red blood cells; settings: human red blood cells 10% v/v in PBS, 1 h; for MHC, minimal hemolytic concentration: lowest concentration showing 5% or more hemolysis, 1–64 μg/mL, A550, relative to 0.2% Triton X-100, triplicate; for percentage hemolysis: at 64 μg/mL, relative to 0.2% Triton X-100, average of three measurements
Method: Briefly, suspensions of human red blood cells (10% v/v in PBS) were treated for 1 h with various concentrations (1–64 μg/mL, two-fold serial dilutions) of peptides, followed by measurement of the absorbance of the supernatant at 550 nm. The relative attenuation was determined as the percentage of hemolysis compared to that of the blood suspension treated with 0.2% Triton X-100. The tests were performed in triplicate, and the average values of three independent measurements were recorded.

[7] = tested on: RAW264.7 cells; settings: at the concentrations tested, 16 h
Method: (§2) Macrophage cells seeded in 96-well cell culture plates at a density of 3 × 10^4 cells/well were incubated for 24 h, followed by treatment with LPS or individual WALK peptides and subsequent incubation for 16 h. Cell viability was then assessed by the conventional MTT assay. Briefly, the medium in each well was replaced with 100 μL of RPMI medium containing MTT (500 μg/mL). After 2 h of incubation, the medium was discarded and the insoluble formazan in each well was dissolved in 100 μL of DMSO with shaking. The absorbance of the solution at 550 nm was measured using a spectrophotometric microplate reader to determine the percentage of cell viability relative to that of control cells.

[8] = tested on: LPS-stimulated J774A.1 cells; assay: Nitric oxide (NO) production, Griess reaction assay; type: cell-based, murine; settings: LPS 100 ng/mL 16 h; for inhibitory effect against NO production: peptides 8, 4 and 2 μM, pretreatment 5 min, nitrite by Griess
Method: NT, non-treated; LPS, lipopolysaccharides. (A) Cytotoxicity was assessed using the MTT assay. […] (B) Anti-inflammatory potential deduced by NO assay.
The macrophage cells were seeded (3 × 10^4 cells/well) and incubated in 96-well plates for 24 h, followed by pretreatments with the WALK peptides at designated concentrations for 5 min and subsequent stimulation with 100 ng/mL of LPS for 16 h. The nitrite concentration in the culture medium was determined using the Griess reaction assay. Briefly, the culture supernatant (100 μL) was mixed with an equal volume of Griess reagent (1% sulfanilamide, 0.1% N-1-naphthyl ethylenediamine) and incubated for 5 min. The absorbance of the resulting chromophoric azo-derivative molecules was measured at 550 nm using a microplate reader with a fresh culture medium as a blank. The amount of nitrite in each sample was determined using a standard curve generated using a range of dilutions of sodium nitrite solutions.

[9] = tested on: J774A.1 cells; settings: peptides 8, 4 and 2 μM, 16 h
Method: (A) Cytotoxicity was assessed using the MTT assay. The cells were treated with lipopolysaccharides (LPS, 100 ng/mL) or peptides (8–2 μM, two-fold serial dilutions) for 16 h, followed by estimating the cell viability as the percentage of surviving cells compared to that of the control cells.
as §2

Compound	MIC, B. subtilis [1] [µg/mL]	MIC, E. coli [2] [µg/mL]	MIC, S. dysentariae [3] [µg/mL]	MIC, S. aureus [4] [µg/mL]	GM, geometric mean of MICs [5] [µg/mL]	MHC, minimal hemolytic concentration [6] [µg/mL]	percentage hemolysis [6] [%]	cytotoxicity (MTT assay) [7]	inhibitory effect against NO production [8]	cytotoxicity (MTT assay) [9]	MIC ([1]; Bacillus subtilis, ATCC6633, read-out: MIC, B. subtilis) [µg/mL]	MIC ([2]; Escherichia coli, ATCC25922) [µg/mL]	MIC ([3]; Shigella, ATCC9752, read-out: MIC, S. dysentariae) [µg/mL]	MIC ([4]; Staphylococcus aureus, ATCC6538P, read-out: MIC, S. aureus) [µg/mL]	geometric mean MIC ([5]; read-out: GM, geometric mean of MICs) [µg/mL]	NO inhibition at 8 μM ([8]; peptide 8 μM)
KWLLKLLKW-NH2 [WALK243.09]	4	8	16	4	6.7	64	–	–	–	–	–	–	–	–	–	–
LKWLLKWLK-NH2 [WALK243.03]	4	8	16	4	6.7	32	–	–	–	–	–	–	–	–	–	–
WLKKLLKWL-NH2 [WALK243.08]	2	2	2	2	2.0	8	–	–	–	–	–	–	–	–	–	–
KWLLKWLLK-NH2 [WALK243.02]	4	4	16	4	5.7	64	6.7	did not demonstrate significant cytotoxicity	–	–	–	–	–	–	–	–
LKWLKKLLKW-NH2 [WALK244.10]	2	8	8	2	4.0	32	–	–	–	–	–	–	–	–	–	–
KLLKWLLKW-NH2 [WALK243.05]	2	2	16	2	3.4	64	–	did not demonstrate significant cytotoxicity	–	–	–	–	–	–	–	–
WLKKWLKKLL-NH2 [WALK244.01]	≤1	2	2	2	≤1.7	16	–	–	–	–	–	–	–	–	–	–
KWLLKWLKKL-NH2 [WALK244.02]	2	2	8	2	2.8	32	–	–	dose-dependent inhibitory effect	no significant cytotoxicity	–	–	–	–	–	–
LKKWLKWLLK-NH2 [WALK244.07]	2	2	8	2	2.8	32	–	–	dose-dependent inhibitory effect	no significant cytotoxicity	–	–	–	–	–	–
NC[C@H]1O[C@H](O[C@H]2[C@H](O)[C@@H](O[C@H]3O[C@H](CO)[C@@H](O)[C@H](N)[C@H]3O)[C@H](N)C[C@@H]2N)[C@H](O)[C@@H](O)[C@@H]1O [Kanamycin, kanamycin, reference compound]	4 (≈ 8.26 µM)	4 (≈ 8.26 µM)	8 (≈ 16.5 µM)	4 (≈ 8.26 µM)	4.8	–	–	–	–	–	–	–	–	–	–	–
CC1(C)S[C@@H]2[C@H](NC(=O)[C@H](N)c3ccccc3)C(=O)N2[C@H]1C(=O)O [Ampicillin, ampicillin, reference compound]	–	–	–	–	–	–	–	–	–	–	≤ 1	≤ 1	≤ 1	≤ 1	≤ 1	–
KLLKWLKKWL-NH2 [WALK244.05]	2	2	4	2	2.4	32	–	–	dose-dependent inhibitory effect	no significant cytotoxicity	–	–	–	–	–	near-complete NO inhibition
LKWLLKWLKK-NH2 [WALK244.03]	8	8	32	8	11.3	64	–	–	–	–	–	–	–	–	–	–
KKLLKWLLKW-NH2 [WALK244.06]	2	16	16	3	6.3	32	–	–	–	–	–	–	–	–	–	–
WLLKWLKKL-NH2 [WALK243.01]	4	4	8	4	4.8	32	–	–	–	–	–	–	–	–	–	–
KWLKKLLKWL-NH2 [WALK244.09]	≤1	2	2	2	≤1.7	8	80.7	–	–	–	–	–	–	–	–	–
WLKKLLKWLK-NH2 [WALK244.08]	2	2	4	≤1	≤2.0	8	–	–	–	–	–	–	–	–	–	–
LKKWLKWLL-NH2 [WALK243.07]	2	2	4	2	2.4	16	–	–	–	–	–	–	–	–	–	–

Reference: publication PMC9686928, “10-mer and 9-mer WALK Peptides with Both Antibacterial and Anti-Inflammatory Activities” (Antibiotics, 2022)
